These results are taken from patent publication US6197802A, “Fungicidal melithiazole derivatives” (American Cyanamid Co., priority 1997, dated 2001).

For data set [1], the system named is Plasmopara viticola. Kind of data set: Protective (1 d res) activity, grape downy mildew (GDM). Type of data set: in vivo. To be noted: 1 d protective.
Data set [2] concerns mouse fibroblasts (cell line L929). Kind of data set: Toxicity using mouse fibroblasts (cell line L929). Type of data set: cell-based. To be noted: for Therapeutic Index: ratio toxicity IC50 (L929) / BOC-MIC. An excerpt:
In addition, the toxicity IC50 of these compounds has been evaluated using mouse fibroblasts (cell line L929). The therapeutic index given is defined as the ratio between the toxicity and the BOC-MIC value (IC50 /MIC).

Data set [3] has as its system Plasmopara viticola. Kind of data set: Curative (2 d cur) activity, grape downy mildew (GDM). The conditions noted are these: 2 d curative. Type of data set: in vivo.
Data set [4] has as its system powdery mildew (Erysiphe graminis) on wheat. Kind of data set: Foliar systemicity in wheat leaves, wheat powdery mildew as indicator disease. To be noted: for Systemicity distal (disease free zone) / Systemicity proximal (disease free zone): wheat leaves, band application of 400 ppm solution; for Systemicity distal (disease free zone): toward leaf apex; for Systemicity proximal (disease free zone): toward leaf base.
Description: Foliar systemicity: When the primary leaves of wheat planted in 8 cm diameter pots in the greenhouse were fully expanded, the plants were cut back to four leaves in each pot of which two were marked with a permanent marker 5 cm below the leaf tip on the upper leaf surface. Thus there were two band-treated and two untreated plants in each pot. […] The application band covered the whole leaf width. After application and after the bands were dried, the plants were moved to the greenhouse and kept there for 2 days to allow for movement of the compounds. The plants were kept by bottom watering. The plants were then inoculated by dusting them with powdery mildew conidia (Erysiphe graminis). Evaluations were made 7-8 days after inoculation. Distal and proximal movement were assessed as follows: The distal and proximal disease free zones on the upper leaf surface were measured in mm. The distal direction is from the band toward the leaf apex and the proximal direction is from the band towards the leaf base.

Another data set concerns Botrytis cinera. Kind of data set: Serial dilution test, Minimum Inhibitory Concentration, Botrytis cinera (BOC). Type of data set: cell-based. To be noted: read-out: MIC (BOC). How it is done: (§1) Determination of Minimum Inhibitory Concentration by Test Compounds in the Serial Dilution Test with Botrytis cinera (BOC), and Hansenula anomala (HNA).
(§2) The MIC (Minimum Inhibitory Concentration) value, which indicates the lowest concentration of the active ingredient in the growth medium which causes a total inhibition of mycelial growth, is determined by serial dilution tests. The compounds of the invention have been compared with known melithiazole C. melithiazole C-amide and with the commercially available strobilurines kresoxim-methyl (BASF AG) and azoxystrobin (ZENECA).

In another data set the test system is Pyrenophora teres. Kind of data set: Protective (1 d res) activity, barley net blotch (BNB). Type of data set: in vivo. The conditions noted are these: 1 d protective.
The test system of the next data set is Hansenula anomala. Description: Serial dilution test, Minimum Inhibitory Concentration, Hansenula anomala (HNA). Type of data set: cell-based. To be noted: read-out: MIC (HNA). As to the method:
as §1, §2

The subject of the next data set is Bortrytis cinera. The conditions noted are these: poster of B. Bohlendorf et al., 1996; cited from earlier work.
In a further data set the test system is Phytophthora infestans. Type of data set: in vivo. To be noted: 1 d protective.
The test system of a further data set is phytopathogenic fungi. Description: Curative in-vivo tests, overall statement. To be noted: overall statement in words. As to the method: Test Plants: Test plants were grown up in the greenhouse. Either seed, pregerminated seed or rooted vegetative plant material was planted in pots containing a fertilized soil/peat mixture. Test plants were used for treating them with the various fungicides when they were in the 3-4 leaf stage. The number of leaves of vegetatively propagated plant material was cut back to 3-4 leaves per plant.
Application: Test plants were treated with fungicides either 1 or 3 days before (protective treatments) or 2 or 3 days after (curative treatments) the inoculation with a pathogen. The test compounds were applied to the test plants using a lateral-nozzle sprayer with a turntable rotating the pots, or the test compounds were applied with an hand-held airbrush. 24 plants were used per treatment.
Compounds: Technical material of the compound according to the invention coded MCM, and of commercially available strobilurines kresoxim-methyl (BASF) and azoxystrobin (ZENECA) was dissolved in acetone with 0.5% Triton X155 at a concentration of 0.5%. […]
Assessment of diseases: The percentage of leaf area infected was assessed by visual estimation when untreated control plants were just completely diseased. Each plant was individually evaluated and then the mean infection rating was calculated for each treatment. The fungicidal activity was calculated using the following formula: [formula] […]

[5] abbreviates: toxicity, mouse fibroblasts L929, read-out: IC50.
Setting [6] is: Botrytis cinera, total inhibition of mycelial growth.
The mark [7] stands for this setting: total inhibition of mycelial growth.

Converted amounts (≈) assume the structure as drawn. Read-outs that look alike come from different tables or passages of the source. Some results are limits rather than exact numbers.

With `CO/N=C(/C(=O)OC)c1ccccc1COc1ccccc1C` [kresoxim-methyl, reference compound], the “activity (%) GDM 1 d res” value in the data set with Plasmopara viticola [1] (dose 4 ppm) is reported as 39%; in the data set on Plasmopara viticola [1] (dose 20 ppm) it was 87%. For the same compound, in data set [2], the “Therapeutic Index” value is 3.75. Besides, the IC50 in data set [2] (setting [5]) worked out at 0.375 µg/mL (≈ 1.2 µM). Besides, the “activity (%) GDM 2d cur” value in the data set with Plasmopara viticola [3] (dose 4 ppm) was 0%; in the data set with Plasmopara viticola [3] (dose 20 ppm), 9%. The “Systemicity distal (disease free zone)” value in data set [4] came out at 23 mm. Besides, the “Systemicity proximal (disease free zone)” value in data set [4] was found to be 13 mm. Also, in the data set on Botrytis cinera (setting [6]), the MIC stood at 0.1 µg/mL (≈ 0.319 µM). Further, the “activity (%) BNB 1 d res” value in the data set with Pyrenophora teres (dose 4 ppm) was determined as 97%; in the data set on Pyrenophora teres (dose 20 ppm), 98%.
As to `CO/N=C(/C)c1nc(/C=C/[C@H](OC)[C@@H](C)/C(=C\C(=O)OC)OC)cs1` [8:(Z)-MCM], the MIC with Hansenula anomala (setting [7]) was 0.08 µg/mL (≈ 0.217 µM); in the data set on Botrytis cinera (setting [6]) it was 0.005 µg/mL (≈ 0.0136 µM). The “Therapeutic Index” value in data set [2] is 100. In data set [2] (setting [5]), the IC50 was determined as 0.5 µg/mL (≈ 1.36 µM).
Taken in the same sequence, the figures for `COC(=O)/C=C(/OC)[C@H](C)[C@H](/C=C/c1csc(C(C)OC(C)=O)n1)OC` (some centres unmarked) [Example 20, Methyl 7-[2-(1-acetoxyethyl)thiazol-4-yl]-3,5-dimethoxy-4-methylheptan-2,6-dienoate] were 1.25 µg/mL (≈ 3.26 µM), 0.3 µg/mL (≈ 0.782 µM), > 13.33 and > 4 µg/mL.
`COC(=O)/C=C(/OC)[C@H](C)[C@H](/C=C/c1csc(/C(C)=N\OCc2ccccc2)n1)OC` [Example 9]: the minimal inhibitory concentration (MIC) was 0.6 µg/mL (≈ 1.35 µM) with Hansenula anomala (setting [7]) and 0.15 µg/mL (≈ 0.337 µM) in the data set with Botrytis cinera (setting [6]). In addition, in data set [2], the “Therapeutic Index” value is recorded as 3.33. Besides, the 50% inhibitory concentration (IC50) in [2] (setting [5]) stood at 0.5 µg/mL (≈ 1.12 µM).
Taken in the same sequence, the figures for `COC(=O)/C=C(/OC)[C@H](C)[C@H](/C=C/c1csc(/C(C)=N/OCc2ccccc2)n1)OC` [Example 10] were 0.3 µg/mL (≈ 0.675 µM), 0.04 µg/mL (≈ 0.09 µM), 1.25 and 0.05 µg/mL (≈ 0.112 µM).
In the case of `COC(=O)/C=C(/OC)[C@H](C)[C@H](/C=C/c1csc(C(C)=O)n1)OC` [2:melithiazole C, methyl 7-(2-acetylthiazol-4-yl)-3,5-dimethoxy-4-methylheptan-2,6-dienoate, reference compound], the MIC in the data set with Hansenula anomala (setting [7]) worked out at 3 µg/mL (≈ 8.84 µM); in the data set with Botrytis cinera (setting [6]), 1.5 µg/mL (≈ 4.42 µM). In addition, in the data set with Bortrytis cinera, the “in vitro activity against Bortrytis cinera” value is recorded as “weak in vitro activity”. In addition, in data set [2], the “Therapeutic Index” value is 0.37. The IC50 in [2] (setting [5]) stood at 0.55 µg/mL (≈ 1.62 µM).
Regarding `C=C(C)c1nc(/C=C/[C@H](OC)[C@@H](C)/C(=C\C(=O)OC)OC)cs1` [Example 29, Methyl 7-[2-isopropenylthiazol-4-yl]-3,5-dimethoxy-4-methylheptan-2,6-dienoate], the figures for the MIC in the data set on Hansenula anomala and with Botrytis cinera (Botrytis) were 0.3 µg/mL (≈ 0.889 µM) and 0.02 µg/mL (≈ 0.0593 µM), respectively. The same compound displayed an IC50 in data set [2] (Mus musculus, L929) of 2 µg/mL (≈ 5.93 µM). The “Therapeutic Index” value in [2] was determined as 100.
With `COC(=O)/C=C(/OC)[C@H](C)[C@H](/C=C/c1csc(C(C)OC)n1)OC` (some centres unmarked) [Example 21, Methyl 7-[2-(1-methoxyethyl)thiazol-4-yl]-3,5-dimethoxy-4-methylheptan-2,6-dienoate], the MIC came to 0.08 µg/mL (≈ 0.225 µM) in the data set with Hansenula anomala (setting [7]) and 0.15 µg/mL (≈ 0.422 µM) with Botrytis cinera (setting [6]). Besides, the “Therapeutic Index” value in data set [2] was 13.33. In addition, the IC50 in data set [2] (setting [5]) turned out to be 2 µg/mL (≈ 5.63 µM).
Consider `COC(=O)/C=C(/OC)[C@H](C)[C@H](/C=C/c1csc(C2(C)CO2)n1)OC` (some centres unmarked) [Example 41, Methyl 7-[2-(1,2-epoxy-1-methylethyl)thiazol-4-yl]-3,5-dimethoxy-4-methylheptan-2,6-dienoate], for which the minimal inhibitory concentration (MIC) in the data set on Hansenula anomala stood at 5 µg/mL (≈ 14.1 µM); in the data set with Botrytis cinera (Botrytis), 0.6 µg/mL (≈ 1.7 µM). Further, the IC50 in [2] (Mus musculus, L929) is > 3.7 µg/mL. In addition, the “Therapeutic Index” value in data set [2] was > 6.17.
Regarding `CO/N=C(\C)c1nc(/C=C/[C@H](OC)[C@@H](C)/C(=C\C(=O)OC)OC)cs1` [8:(E)-MCM], the figures for the MIC in the data set with Hansenula anomala (setting [7]) and with Botrytis cinera (setting [6]) were 0.08 µg/mL (≈ 0.217 µM) and 0.0025 µg/mL (≈ 0.00679 µM), respectively. In addition, the “Therapeutic Index” value in data set [2] is reported as 160. The concentration for half-maximal inhibition (IC50) in [2] (setting [5]) was 0.4 µg/mL (≈ 1.09 µM).
In the case of `CO/C=C(/C(=O)OC)c1ccccc1Oc1cc(Oc2ccccc2C#N)ncn1` [azoxystrobin, reference compound], in data set [4], the “Systemicity distal (disease free zone)” value is given as 43 mm and the “Systemicity proximal (disease free zone)” value is recorded as 9 mm.
As for `CCOC(=O)/C=C(/OC)[C@H](C)[C@H](/C=C/c1csc(C(C)=NOC)n1)OC` (mixture of isomers) [(E/Z)-(13/14)], the values for the MIC in the data set on Hansenula anomala (setting [7]) and with Botrytis cinera (setting [6]) were 0.02 µg/mL and 0.005 µg/mL, respectively. Also, in [2], the “Therapeutic Index” value is recorded as 40. Besides, the IC50 in data set [2] (setting [5]) was determined as 0.2 µg/mL.
On to `CON=C(C)c1nc(/C=C/[C@H](OC)[C@@H](C)/C(=C\C(=O)OC)OC)cs1` (mixture of isomers) [MCM], for which the “activity (%) GDM 1 d res” value in the data set on Plasmopara viticola [1] (dose 4 ppm) stood at 92%; in the data set with Plasmopara viticola [1] (dose 20 ppm), 100%. Moreover, the “activity (%) TLB 1 d res” value with Phytophthora infestans (dose 4 ppm) is 25%; in the data set with Phytophthora infestans (dose 20 ppm), 65%. Also, the “activity (%) GDM 2d cur” value in the data set with Plasmopara viticola [3] (dose 4 ppm) came to 0%; with Plasmopara viticola [3] (dose 20 ppm), 59%. Also, in [4] (overall statement in words), the foliar systemicity entry is “better than that of the commercialized strobilurine derivatives kresoxim-methyl and azoxystrobin”. The bioavailable result in data set [4] (plant, implied by foliar systemicity and curative values) was “readily and highly bioavailable”. In addition, the “Systemicity distal (disease free zone)” value in data set [4] came out at 50 mm. The “Systemicity proximal (disease free zone)” value in data set [4] came to 21 mm. Moreover, the “activity (%) BNB 1 d res” value in the data set on Pyrenophora teres (dose 4 ppm) and in the data set with Pyrenophora teres (dose 20 ppm) was 100% in each case. For the same compound, the curative activity result in the data set with phytopathogenic fungi was “better than that of the commercialized strobilurine derivatives kresoxim-methyl and azoxystrobin”.
Turning to `CO/C(=C/C(N)=O)[C@H](C)[C@H](/C=C/c1csc(C(C)=O)n1)OC` [1:melithiazole C-amide, 7-(2-acetylthiazol-4-yl)-3,5-dimethoxy-4-methylheptan-2,6-dienoic amide, reference compound], the minimum inhibitory concentration (MIC) in the data set with Hansenula anomala (setting [7]) and in the data set on Botrytis cinera (setting [6]) was > 10 µg/mL throughout. Besides, in data set [2], the “Therapeutic Index” value is < 0.8. Besides, the IC50 in data set [2] (setting [5]) was 8 µg/mL (≈ 24.7 µM).
